Read-outs that look alike come from different tables or passages of the source. *1 amine or outer side, *2 acyl side, *3 side chain or, on linkers, in order; H or OH if unused. Where a SMILES comes first, the peptide text is derived from it. Side-chain parts run from the residue outwards. [ ]: non-standard residue; d: D form. The star is where a group is joined. γGlu = O=C(O)[C@H](CCC(=O)[*:2])N[*:1]; Palmitoyl = CCCCCCCCCCCCCCCC(=O)*; Aib = CC(C)(N)C(=O)O
Tests used:
human GCGR = human GCGR (Homo sapiens, UniProt P47871); assay: Peptide-receptor mediated cAMP accumulation (LANCE Ultra cAMP) in CHO-K1 cells transfected with human GCGR; assay type: cell-based
Sequence of human GCGR (P47871 26-477): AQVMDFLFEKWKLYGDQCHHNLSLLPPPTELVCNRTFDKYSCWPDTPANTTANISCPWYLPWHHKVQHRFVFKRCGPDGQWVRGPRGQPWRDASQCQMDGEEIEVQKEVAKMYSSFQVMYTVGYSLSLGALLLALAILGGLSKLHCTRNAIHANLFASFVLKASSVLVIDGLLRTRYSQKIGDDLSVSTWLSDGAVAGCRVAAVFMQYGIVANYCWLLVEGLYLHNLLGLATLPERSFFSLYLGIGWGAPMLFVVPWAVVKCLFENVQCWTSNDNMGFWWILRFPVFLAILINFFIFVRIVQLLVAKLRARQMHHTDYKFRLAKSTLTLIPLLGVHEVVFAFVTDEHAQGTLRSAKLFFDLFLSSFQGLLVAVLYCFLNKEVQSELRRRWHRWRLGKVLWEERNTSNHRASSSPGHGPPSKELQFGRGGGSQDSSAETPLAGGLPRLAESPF

human GLP-1R = human GLP-1R (Homo sapiens, UniProt P43220); assay: Peptide-receptor mediated cAMP accumulation (LANCE Ultra cAMP) in CHO-K1 cells transfected with human GLP-1R; assay type: cell-based
Sequence of human GLP-1R (P43220 24-463): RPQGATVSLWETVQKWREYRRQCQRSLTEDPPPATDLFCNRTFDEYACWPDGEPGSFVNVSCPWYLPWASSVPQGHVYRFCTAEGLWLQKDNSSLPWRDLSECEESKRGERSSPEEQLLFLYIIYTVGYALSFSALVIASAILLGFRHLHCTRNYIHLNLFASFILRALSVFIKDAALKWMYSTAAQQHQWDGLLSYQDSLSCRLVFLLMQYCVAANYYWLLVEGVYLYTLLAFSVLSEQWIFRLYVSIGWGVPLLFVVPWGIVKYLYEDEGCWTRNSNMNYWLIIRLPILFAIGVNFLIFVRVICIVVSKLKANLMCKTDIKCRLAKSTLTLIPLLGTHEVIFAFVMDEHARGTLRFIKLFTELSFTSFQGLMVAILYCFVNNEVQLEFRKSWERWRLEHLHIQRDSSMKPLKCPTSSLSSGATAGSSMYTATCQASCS

[1] = hGLP1 pEC50 (cAMP mean (n = 3): 11 point curve starting at 1 nM, Table 3)

EC50 (human GCGR; read-out: GluR pEC50 (converted)) [pM]	EC50 (human GLP-1R; Table 7, GLP-1R, read-out: GLP-1R pEC50 (converted)) [pM]	Structure (SMILES)	EC50 (human GCGR; Table 3) [pM]	EC50 (human GLP-1R; [1]) [pM]
		CC(C)C[C@H](NC(=O)[C@H](Cc1ccc(O)cc1)NC(=O)[C@H](CCCCN)NC(=O)[C@H](CO)NC(=O)[C@H](Cc1ccc(O)cc1)NC(=O)[C@H](CC(=O)O)NC(=O)[C@H](CO)NC(=O)[C@@H](NC(=O)[C@H](Cc1ccccc1)NC(=O)[C@@H](NC(=O)CNC(=O)[C@H](Cc1c[nH]cn1)NC(=O)[C@H](CO)NC(=O)[C@@H](N)Cc1c[nH]c2ccccc12)[C@@H](C)O)[C@@H](C)O)C(=O)N[C@@H](CC(=O)O)C(=O)NC(C)(C)C(=O)N[C@@H](CCCCN)C(=O)N[C@@H](CCCNC(=N)N)C(=O)N[C@@H](C)C(=O)N[C@@H](CCC(N)=O)C(=O)N[C@@H](CCC(=O)O)C(=O)N[C@@H](Cc1ccccc1)C(=O)N[C@H](C(=O)NC(C)(C)C(=O)N[C@@H](Cc1c[nH]c2ccccc12)C(=O)N[C@@H](CC(C)C)C(=O)N[C@@H](CCC(=O)O)C(=O)N[C@@H](CC(=O)O)C(=O)N[C@@H](CCC(=O)O)C(=O)N1CCC[C@H]1C(=O)N[C@@H](CO)C(=O)N[C@@H](CO)C(=O)NCC(=O)N[C@@H](C)C(=O)N1CCC[C@H]1C(=O)N1CCC[C@H]1C(=O)N1CCC[C@H]1C(=O)N[C@@H](CO)C(=O)O)C(C)C [Compound A75] (H-WSHGTFTSDYSKYLD[Aib]KRAQEFV[Aib]WLEDEPSSGAPPPS-OH; N-terminus assumed)	5.01	> 1000
		CC(C)C[C@H](NC(=O)[C@H](Cc1c[nH]c2ccccc12)NC(=O)[C@H](CCCCN)NC(=O)[C@H](CO)NC(=O)[C@H](Cc1ccc(O)cc1)NC(=O)[C@H](CC(=O)O)NC(=O)[C@H](CO)NC(=O)[C@@H](NC(=O)[C@H](Cc1ccccc1)NC(=O)[C@@H](NC(=O)CNC(=O)[C@H](Cc1c[nH]cn1)NC(=O)[C@H](CO)NC(=O)[C@@H](N)Cc1ccc(O)cc1)[C@@H](C)O)[C@@H](C)O)C(=O)N[C@@H](CC(=O)O)C(=O)NC(C)(C)C(=O)N[C@@H](CO)C(=O)N[C@@H](CCCNC(=N)N)C(=O)N[C@@H](C)C(=O)N[C@@H](CCC(N)=O)C(=O)N[C@@H](CCC(=O)O)C(=O)N[C@@H](Cc1ccccc1)C(=O)N[C@H](C(=O)NC(C)(C)C(=O)N[C@@H](Cc1c[nH]c2ccccc12)C(=O)N[C@@H](CC(C)C)C(=O)N[C@@H](CCC(=O)O)C(=O)N[C@@H](CC(=O)O)C(=O)N[C@@H](CCC(=O)O)C(=O)N1CCC[C@H]1C(=O)N[C@@H](CO)C(=O)N[C@@H](CO)C(=O)NCC(=O)N[C@@H](C)C(=O)N1CCC[C@H]1C(=O)N1CCC[C@H]1C(=O)N1CCC[C@H]1C(=O)N[C@@H](CO)C(=O)O)C(C)C [Compound A19] (H-YSHGTFTSDYSKWLD[Aib]SRAQEFV[Aib]WLEDEPSSGAPPPS-OH; N-terminus assumed)	10	> 1000
7.94	251000	CCCCCCCCCCCCCCCC(=O)N[C@@H](CCC(=O)NCCCC[C@H](NC(=O)[C@H](CC(=O)O)NC(=O)[C@H](CC(C)C)NC(=O)[C@H](Cc1ccc(O)cc1)NC(=O)[C@H](CCCCN)NC(=O)[C@H](CO)NC(=O)[C@H](Cc1ccc(O)cc1)NC(=O)[C@H](CC(=O)O)NC(=O)[C@H](CO)NC(=O)[C@@H](NC(=O)[C@H](Cc1ccccc1)NC(=O)[C@@H](NC(=O)CNC(=O)[C@H](CCC(N)=O)NC(=O)[C@H](CO)NC(=O)[C@@H](N)Cc1ccc(O)cc1)[C@@H](C)O)[C@@H](C)O)C(=O)N[C@@H](C)C(=O)N[C@@H](CCCNC(=N)N)C(=O)N[C@@H](C)C(=O)N[C@@H](CCC(N)=O)C(=O)N[C@@H](CCC(=O)O)C(=O)N[C@@H](Cc1ccccc1)C(=O)N[C@H](C(=O)N[C@@H](CCCCN)C(=O)N[C@@H](Cc1c[nH]c2ccccc12)C(=O)N[C@@H](CC(C)C)C(=O)N[C@@H](CCC(=O)O)C(=O)N[C@@H](CC(=O)O)C(=O)N[C@@H](CCC(=O)O)C(=O)N1CCC[C@H]1C(=O)N[C@@H](CCCCN)C(=O)N[C@@H](CO)C(=O)N[C@@H](CCCCN)C(=O)N[C@@H](CO)C(=O)N1CCC[C@H]1C(=O)N1CCC[C@H]1C(=O)N1CCC[C@H]1C(=O)N[C@@H](CO)C(N)=O)C(C)C)C(=O)O [Compound B35] (H-YSQGTFTSDYSKYLDK([γGlu-Palmitoyl])ARAQEFVKWLEDEPKSKSPPPS-NH2)		
		CC(C)C[C@H](NC(=O)[C@H](Cc1ccc(O)cc1)NC(=O)[C@H](CCCCN)NC(=O)[C@H](CO)NC(=O)[C@H](Cc1ccc(O)cc1)NC(=O)[C@H](CC(=O)O)NC(=O)[C@H](CO)NC(=O)[C@@H](NC(=O)[C@H](Cc1ccccc1)NC(=O)[C@@H](NC(=O)CNC(=O)[C@H](Cc1c[nH]cn1)NC(=O)[C@H](CO)NC(=O)[C@@H](N)Cc1ccc(O)cc1)[C@@H](C)O)[C@@H](C)O)C(=O)N[C@@H](CC(=O)O)C(=O)NC(C)(C)C(=O)N[C@@H](CO)C(=O)N[C@@H](CCCNC(=N)N)C(=O)N[C@@H](C)C(=O)N[C@@H](CCC(N)=O)C(=O)N[C@@H](CCC(=O)O)C(=O)N[C@@H](Cc1ccccc1)C(=O)N[C@H](C(=O)NC(C)(C)C(=O)N[C@@H](Cc1c[nH]c2ccccc12)C(=O)N[C@@H](CC(C)C)C(=O)N[C@@H](CCC(=O)O)C(=O)N[C@@H](CC(=O)O)C(=O)N[C@@H](CCC(=O)O)C(=O)N1CCC[C@H]1C(=O)N[C@@H](CO)C(=O)N[C@@H](CO)C(=O)NCC(=O)N[C@@H](C)C(=O)N1CCC[C@H]1C(=O)N1CCC[C@H]1C(=O)N1CCC[C@H]1C(=O)N[C@@H](CO)C(=O)O)C(C)C [Compound A15] (H-YSHGTFTSDYSKYLD[Aib]SRAQEFV[Aib]WLEDEPSSGAPPPS-OH; N-terminus assumed)	3.98	> 1000
		CC(C)C[C@H](NC(=O)[C@H](Cc1ccc(O)cc1)NC(=O)[C@H](CCCCN)NC(=O)[C@H](CO)NC(=O)[C@H](Cc1ccc(O)cc1)NC(=O)[C@H](CC(=O)O)NC(=O)[C@H](CO)NC(=O)[C@@H](NC(=O)[C@H](Cc1ccccc1)NC(=O)[C@@H](NC(=O)CNC(=O)[C@H](Cc1c[nH]cn1)NC(=O)[C@H](CO)NC(=O)[C@@H](N)Cc1ccc(O)cc1)[C@@H](C)O)[C@@H](C)O)C(=O)N[C@@H](CC(=O)O)C(=O)NC(C)(C)C(=O)N[C@@H](CCCCN)C(=O)N[C@@H](CCCNC(=N)N)C(=O)N[C@@H](C)C(=O)N[C@@H](CCC(N)=O)C(=O)N[C@@H](CCC(=O)O)C(=O)N[C@@H](Cc1ccccc1)C(=O)N[C@H](C(=O)NC(C)(C)C(=O)N[C@@H](Cc1c[nH]c2ccccc12)C(=O)N[C@@H](CC(C)C)C(=O)N[C@@H](CCC(=O)O)C(=O)N[C@@H](CC(=O)O)C(=O)N[C@@H](CCC(=O)O)C(=O)N1CCC[C@H]1C(=O)N[C@@H](CCCCN)C(=O)N[C@@H](CO)C(=O)N[C@@H](CCCCN)C(=O)N[C@@H](CCC(N)=O)C(=O)N1CCC[C@H]1C(=O)N1CCC[C@H]1C(=O)N1CCC[C@H]1C(=O)N[C@@H](CO)C(=O)O)C(C)C [Compound A57] (H-YSHGTFTSDYSKYLD[Aib]KRAQEFV[Aib]WLEDEPKSKQPPPS-OH; N-terminus assumed)	1	> 1000
